The source of these data is US20260091147A1, “METHOD FOR DETECTING INNATE IMMUNE ACTION IN VIVO USING GPR84-PET” (The Board of Trustees of the Leland Standford Junior …, priority 2023, published 2026).

In data set [1] the target is T1, postsynaptic dopamine D2 receptors (Rattus norvegicus, UniProt P61169).
T1 construct: host or cells: healthy rodent brain in vivo
The settings on record: healthy rodents; cited from earlier work.

The target of data set [2] is human GPR84-Gαi2 fusion protein (Homo sapiens, UniProt Q9NQS5). Nature of the data set: [3H]G9543 competition binding assay, membranes from Flp-In TREx 293 cells. The settings on record: competition with [3H]G9543; read-out: Kd (affinity for GPR84). How it is done: To determine KD of GLPG38, a competitive binding assay was performed using a membrane preparation from cells expressing GPR84-Gi in addition to [^3H]G9543, a known GPR84 antagonist. [^11C]GLPG38 was then radiosynthesized via [^11C]methylation of desmethyl precursor using [^11C]methyl iodide. […] For animal studies, sepsis was induced in female C57BL/6J mice via intraperitoneal injection of lipopolysaccharide (LPS, 10 mg/kg); vehicle-treated mice were injected with saline alone. Dynamic 60 min PET/CT imaging was performed 24 hr following LPS-administration using [^11C]GLPG38. Subsequently, mice were perfused with PBS to remove blood, and radioactive signal was assessed in CNS and peripheral tissues via gamma counting. Ex vivo autoradiography of sagittal mouse brain sections was conducted to obtain high resolution images of [^11C]GLPG38 binding. To investigate alterations in GPR84 mRNA expression, quantitative polymerase-chain reaction was performed using mouse brain tissue and human monocyte-derived macrophage cells stimulated with LPS 24 hr prior to RNA extraction.
human GPR84-Gαi2 fusion protein, sequence (Q9NQS5 whole entry, the tested form may be a part): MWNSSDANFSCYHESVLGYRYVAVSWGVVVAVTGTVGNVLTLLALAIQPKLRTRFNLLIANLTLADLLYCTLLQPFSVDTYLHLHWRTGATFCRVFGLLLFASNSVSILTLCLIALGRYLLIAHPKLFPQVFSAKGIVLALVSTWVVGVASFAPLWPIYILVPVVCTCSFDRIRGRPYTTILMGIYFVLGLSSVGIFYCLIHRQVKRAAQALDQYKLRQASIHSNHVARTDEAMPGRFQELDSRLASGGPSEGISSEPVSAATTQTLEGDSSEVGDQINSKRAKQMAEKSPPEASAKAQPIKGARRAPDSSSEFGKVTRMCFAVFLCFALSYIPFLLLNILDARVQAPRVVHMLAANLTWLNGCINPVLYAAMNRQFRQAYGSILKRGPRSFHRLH

For data set [3], the target named is T2, CSF1R (Mus musculus, UniProt P09581).
T2 construct: host or cells: mouse brain in vivo, LPS 10 mg/kg
T2 sequence (P09581 20-977): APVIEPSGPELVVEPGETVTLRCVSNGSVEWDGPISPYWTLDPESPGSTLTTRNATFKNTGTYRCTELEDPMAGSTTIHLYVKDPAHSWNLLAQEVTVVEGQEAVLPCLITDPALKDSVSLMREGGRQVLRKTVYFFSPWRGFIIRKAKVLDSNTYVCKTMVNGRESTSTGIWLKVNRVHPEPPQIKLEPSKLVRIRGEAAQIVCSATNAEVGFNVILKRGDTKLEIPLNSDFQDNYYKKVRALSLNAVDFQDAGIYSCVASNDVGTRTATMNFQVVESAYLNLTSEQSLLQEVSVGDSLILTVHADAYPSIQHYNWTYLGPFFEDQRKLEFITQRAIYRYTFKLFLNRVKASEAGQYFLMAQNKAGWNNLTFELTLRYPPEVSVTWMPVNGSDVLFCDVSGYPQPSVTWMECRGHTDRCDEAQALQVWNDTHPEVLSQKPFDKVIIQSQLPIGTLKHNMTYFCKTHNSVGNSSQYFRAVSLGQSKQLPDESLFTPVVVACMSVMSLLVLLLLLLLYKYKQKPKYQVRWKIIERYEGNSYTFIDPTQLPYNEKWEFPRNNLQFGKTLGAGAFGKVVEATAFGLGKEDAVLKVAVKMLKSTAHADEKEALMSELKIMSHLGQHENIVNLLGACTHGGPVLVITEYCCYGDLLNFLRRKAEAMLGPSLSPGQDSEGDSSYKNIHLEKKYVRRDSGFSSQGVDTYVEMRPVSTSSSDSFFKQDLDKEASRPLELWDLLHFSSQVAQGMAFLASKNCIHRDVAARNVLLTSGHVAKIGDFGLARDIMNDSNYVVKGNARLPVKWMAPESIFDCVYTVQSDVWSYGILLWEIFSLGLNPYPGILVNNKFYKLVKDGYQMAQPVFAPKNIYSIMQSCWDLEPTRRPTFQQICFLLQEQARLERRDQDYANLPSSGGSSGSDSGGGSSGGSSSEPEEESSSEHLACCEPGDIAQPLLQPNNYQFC
Particulars: LPS 10 mg/kg; cited from earlier work.

Data set [4] concerns the target T3, purinergic receptor subtype 7 (P2×7) (Mus musculus, UniProt Q9Z1M0).
T3 construct: host or cells: mouse brain in vivo, LPS 5 mg/kg
T3 sequence (Q9Z1M0 1-595): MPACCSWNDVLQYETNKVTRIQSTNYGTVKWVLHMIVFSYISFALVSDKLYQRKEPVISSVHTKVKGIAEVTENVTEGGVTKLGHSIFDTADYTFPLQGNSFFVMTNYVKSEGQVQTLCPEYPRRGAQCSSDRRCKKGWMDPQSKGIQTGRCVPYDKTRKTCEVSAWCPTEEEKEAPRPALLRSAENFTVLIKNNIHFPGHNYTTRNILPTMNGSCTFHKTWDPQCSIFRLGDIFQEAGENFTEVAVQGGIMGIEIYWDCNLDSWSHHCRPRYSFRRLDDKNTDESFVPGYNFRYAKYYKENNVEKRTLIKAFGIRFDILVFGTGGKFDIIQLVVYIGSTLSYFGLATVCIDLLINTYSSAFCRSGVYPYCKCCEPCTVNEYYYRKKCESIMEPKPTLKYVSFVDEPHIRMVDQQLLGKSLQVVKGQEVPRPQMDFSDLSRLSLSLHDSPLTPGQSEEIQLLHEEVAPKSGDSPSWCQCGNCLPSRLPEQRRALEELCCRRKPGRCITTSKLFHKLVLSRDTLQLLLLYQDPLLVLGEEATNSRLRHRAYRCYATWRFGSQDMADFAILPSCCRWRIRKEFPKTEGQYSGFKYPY
Particulars: LPS 5 mg/kg; cited from earlier work.

The target of data set [5] is T4, GPR84 (Mus musculus, UniProt Q8CIM5).
T4 construct: tissue Jackson Laboratories; host or cells: female C57BL/6J mice (LPS, saline, EAE or naive): brain, spinal cord and peripheral organs
T4 sequence (Q8CIM5 whole entry): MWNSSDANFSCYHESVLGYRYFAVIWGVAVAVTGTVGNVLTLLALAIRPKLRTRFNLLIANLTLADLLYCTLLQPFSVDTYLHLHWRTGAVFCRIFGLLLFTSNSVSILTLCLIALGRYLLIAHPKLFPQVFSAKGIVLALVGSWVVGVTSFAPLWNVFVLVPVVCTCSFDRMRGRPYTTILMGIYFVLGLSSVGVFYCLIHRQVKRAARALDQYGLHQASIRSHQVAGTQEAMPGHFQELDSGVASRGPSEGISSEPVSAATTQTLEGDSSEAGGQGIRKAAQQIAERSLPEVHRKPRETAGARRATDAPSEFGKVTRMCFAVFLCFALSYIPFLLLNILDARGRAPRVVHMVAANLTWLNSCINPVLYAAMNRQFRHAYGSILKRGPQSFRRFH
Briefly: Dynamic PET/CT of brain in LPS-induced systemic inflammation vs saline, with or without GLPG1205 block. The format is in vivo. The settings on record: LPS 5 mg/kg. How it is done:
(§1) To determine KD of GLPG38, a competitive binding assay was performed using a membrane preparation from cells expressing GPR84-Gi in addition to [^3H]G9543, a known GPR84 antagonist. [^11C]GLPG38 was then radiosynthesized via [^11C]methylation of desmethyl precursor using [^11C]methyl iodide. […] Dynamic 60 min PET/CT imaging was performed 24 hr following LPS-administration using [^11C]GLPG38. Subsequently, mice were perfused with PBS to remove blood, and radioactive signal was assessed in CNS and peripheral tissues via gamma counting. Ex vivo autoradiography of sagittal mouse brain sections was conducted to obtain high resolution images of [^11C]GLPG38 binding. To investigate alterations in GPR84 mRNA expression, quantitative polymerase-chain reaction was performed using mouse brain tissue and human monocyte-derived macrophage cells stimulated with LPS 24 hr prior to RNA extraction.
(§2) The count densities were averaged for all volumes of interest at each time point to obtain a time-activity curve (TAC). The TACs were normalized to injected dose, as measured by a CRC-15 PET dose calibrator (Capintec Inc.), and expressed as % injected dose per gram (% ID/g), assuming 1 g/mL. CT was performed in GNEXT depth of interaction (DOI) dual-layer detector system. Scintica VivoQuant software was used to visualize radiotracer uptake and define the 3D volumes of interest. 3D maximum intensity projection (MIP) PET/CT images were created using IRW software.
A range of doses (0.65, 0.75, and 0.90 mg/kg) of GLPG1205 were used to investigate whether the blocking was dose-dependent. […] GLPG1205 was injected intra-venously 10 min prior to radiotracer injection (n=4).

How the values of data set [6] were obtained: In vivo stability assay. […] Mice were perfused with PBS buffer (20 mL) under deep anesthesia (5 min, 20 min). The whole brain and liver lobe were removed from mouse place in two separate […] microcentrifuge tubes containing 500 μL acetonitrile, homogenized sample and placed on ice. The well-homogenized samples were transferred to two 1.5 mL microcentrifuge tubes, centrifuged at 9,400 g for 4 min at room temperature. Supernatants were transferred into gamma counting tubes; the pellets were transferred into separate tubes. All supernatants and pellets were counted using gamma counter to measure extraction efficiency. Each of the supernatant (150-200 μL) was transferred into HPLC vials with the inserts and injected into HPLC for radio-metabolic analysis.
At 5 and 20 min post-tracer injection, the analysis of the whole brain and liver was performed using analytical HPLC to assess the presence of potential radiometabolites.

The target in data set [7] is T4, GPR84. Nature of the data set: Ex vivo autoradiography of brain sections from LPS-treated mice. The format is in vivo. Particulars: GLPG1205 5 mg/kg ([11C]GLPG38) or 1 mg/kg (11C-MGX-10S). The protocol:
To determine KD of GLPG38, a competitive binding assay was performed using a membrane preparation from cells expressing GPR84-Gi in addition to [^3H]G9543, a known GPR84 antagonist. [^11C]GLPG38 was then radiosynthesized via [^11C]methylation of desmethyl precursor using [^11C]methyl iodide. Binding specificity of [^11C]GLPG38 was assessed using human GPR84-stably-expressing human embryonic kidney cells (HEK-293) versus control HEK-293 cells. For animal studies, sepsis was induced in female C57BL/6J mice via intraperitoneal injection of lipopolysaccharide (LPS, 10 mg/kg); vehicle-treated mice were injected with saline alone. Dynamic 60 min PET/CT imaging was performed 24 hr following LPS-administration using [^11C]GLPG38. Subsequently, mice were perfused with PBS to remove blood, and radioactive signal was assessed in CNS and peripheral tissues via gamma counting. Ex vivo autoradiography of sagittal mouse brain sections was conducted to obtain high resolution images of [^11C]GLPG38 binding. To investigate alterations in GPR84 mRNA expression, quantitative polymerase-chain reaction was performed using mouse brain tissue and human monocyte-derived macrophage cells stimulated with LPS 24 hr prior to RNA extraction.
Ex vivo Audoradiography Confirms ^11C-MGX-10S Specificity.

In data set [8] the target is T4, GPR84. Nature of the data set: Ex vivo biodistribution (gamma counting) of GPR84 tracer in LPS- vs saline-treated mice. Particulars: 20 min post injection. How it is done: FIGS. 11A-11B show ex vivo biodistribution and autoradiography. […] At 20 min postinjection, animals were perfused with saline and tissues were collected, weighed, and gamma-counted. […] Statistical analysis was performed using “Unpaired t test with Welch correction”, *=P<0.05. […] Cb=cerebellum, Ctx=cortex, Str=striatum, H=hippocampus, Mb=midbrain, Ob=olfactory bulb, and BS=brain stem.
as §1

A short description of data set [9]: Dynamic 60 min PET/CT of healthy mice, whole-brain time activity curve. The data set is classed as in vivo, mouse. Particulars: healthy mice.
Text: A transmission scan was acquired to correct for attenuation during image reconstruction. Following PET imaging, mice were transferred to a SOFIE GNEXT PET/CT for CT acquisition. PET/CT data were co-registered and analyzed using Inveon Research Workplace software to generate images and quantify radiotracer uptake in regions of interest (ROIs). A 3D ROI was manually defined for the whole brain using CT data as anatomical reference, then applied to the full dynamic data set to generate a time activity curve (TAC).
as §2
On days 15-16 after EAE induction, mice were catheterized and placed on the 4-mouse scanning bed of the Sofie GNEXT PET/CT scanner.

In data set [10] the target is T5, synaptic vesicle glycoprotein 2A receptor (Mus musculus, UniProt Q9JIS5).
T5 construct: host or cells: healthy mouse brain in vivo
T5 sequence (Q9JIS5 whole entry): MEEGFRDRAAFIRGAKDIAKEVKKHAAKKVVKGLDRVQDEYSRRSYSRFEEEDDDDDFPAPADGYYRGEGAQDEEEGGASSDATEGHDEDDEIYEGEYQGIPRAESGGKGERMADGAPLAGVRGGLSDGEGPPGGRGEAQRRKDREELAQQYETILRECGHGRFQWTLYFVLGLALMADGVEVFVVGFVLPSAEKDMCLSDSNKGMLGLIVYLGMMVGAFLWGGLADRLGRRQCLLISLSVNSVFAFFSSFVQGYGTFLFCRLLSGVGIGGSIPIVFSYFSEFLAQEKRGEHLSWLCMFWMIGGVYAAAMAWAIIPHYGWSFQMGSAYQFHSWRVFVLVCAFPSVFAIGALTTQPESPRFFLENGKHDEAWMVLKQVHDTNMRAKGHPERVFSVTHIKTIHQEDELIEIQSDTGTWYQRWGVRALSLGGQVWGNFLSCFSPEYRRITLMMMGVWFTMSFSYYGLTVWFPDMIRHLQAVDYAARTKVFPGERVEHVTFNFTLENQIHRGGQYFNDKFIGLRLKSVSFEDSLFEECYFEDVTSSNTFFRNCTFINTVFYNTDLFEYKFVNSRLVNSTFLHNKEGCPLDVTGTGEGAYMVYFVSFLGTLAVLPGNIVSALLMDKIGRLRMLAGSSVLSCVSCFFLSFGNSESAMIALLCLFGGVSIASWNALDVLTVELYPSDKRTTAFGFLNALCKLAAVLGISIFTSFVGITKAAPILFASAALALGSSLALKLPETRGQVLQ
The settings on record: cited from earlier work.

T1 sequence (P61169 whole entry): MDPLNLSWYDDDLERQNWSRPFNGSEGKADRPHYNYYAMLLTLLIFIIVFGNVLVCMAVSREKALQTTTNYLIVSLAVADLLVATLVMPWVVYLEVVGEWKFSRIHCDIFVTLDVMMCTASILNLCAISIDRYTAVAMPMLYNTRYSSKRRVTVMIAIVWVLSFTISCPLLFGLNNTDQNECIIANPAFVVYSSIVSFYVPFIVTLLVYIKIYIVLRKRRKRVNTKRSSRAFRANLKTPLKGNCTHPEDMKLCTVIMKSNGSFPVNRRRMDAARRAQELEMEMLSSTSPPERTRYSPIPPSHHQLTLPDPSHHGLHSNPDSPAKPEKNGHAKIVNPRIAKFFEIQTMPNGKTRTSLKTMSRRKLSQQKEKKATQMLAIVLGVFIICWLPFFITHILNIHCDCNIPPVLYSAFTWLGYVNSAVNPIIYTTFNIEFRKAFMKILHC

With `CCN1CCC[C@H]1CNC(=O)c1c(O)c(Cl)cc(Cl)c1O[11CH3]` (racemic) [^11C-Raclopride], in data set [1], the “Brain 5 min/60 min ratio” value is reported as ~2 and the “time of maximum brain uptake” value is listed as 5 min.

For `COc1cc2c(cc1C)-c1c(C)c(OC[C@@H]3COCCO3)cc(=O)n1CC2` [GLPG38], in data set [2], the Kd (usually the free concentration of one partner at which half of the binding sites on the other are occupied at equilibrium, for simple one-to-one binding) was found to be 11.8 nM.

Take `CN1CCN(c2ccc(NC(=O)c3ccc(C#N)o3)c(N3CCCCC3)c2)CC1` [^11C-CPPC, [11C]5-Cyano-N-(4-(4-Methylpiperazin-1-YI)-2-(Piperidin-1-YI)Phenyl)Furan-2-Carboxamide]: in data set [3], the “higher binding in mouse brain, LPS vs control animal” value is given as 55%.

For `[11CH3]N1C(=O)CC[C@H]1C(=O)NCc1cccc(C(F)(F)F)c1Cl` [^11C-GSK1482160], the “fold higher binding in brain, LPS vs saline-treated mice” value in data set [4] is on record as 3.2 fold.

With `[11CH3]Oc1ccc2c(c1)CCn1c-2cc(OC[C@@H]2COCCO2)nc1=O` [^11C-MGX-10S], in data set [5] (GLPG1205 0.65 mg/kg i.v. 10 min before tracer), the “reduction of brain PET signal in LPS mice by GLPG1205 at end of scan” value came to 38.50%. For the same compound, in [5], the “increase in whole-brain radiotracer uptake, LPS vs saline, 30-60 min integration” value is “approximately 39.27%”. Besides, the “higher brain accumulation in LPS vs saline-treated mice at end of scan” value in [5] (60 min dynamic PET) was found to be 42.46%. In [6] (HPLC), the “radiometabolite M1 in brain at 20 min post injection” value stood at 3% and the “radiometabolite M1 in liver at 20 min post injection” value is 10%. In data set [6] (LPS-treated mice), the “intact radiotracer in liver at 20 min post injection” value was 90% and the “intact radiotracer in liver, initial (5 min)” value is 100%. For the same compound, in data set [6] (LPS-treated mice, n=3), the “intact radiotracer in brain at 5 min post injection” value worked out at 100% and the “intact radiotracer in brain at 20 min post injection” value is listed as 97%. Further, the “tracer binding in LPS brain sections after pre-blocking with GLPG1205” value in data set [7] is on record as “dramatic reduction”. For the same compound, in [8], the “adipose tissue uptake, saline-treated mice” value is 0.63±0.15 % ID/g; the “kidney uptake, saline-treated mice” value was 5.32±3.01 % ID/gram; the “liver uptake, saline-treated mice” value is recorded as 4.51±0.15 % ID/gram. In addition, in data set [8] (perfused), the “brain uptake, saline-treated mice” value amounted to 0.45±0.06 % ID/g. Besides, in data set [8] (LPS 5 mg/kg), the “adipose tissue uptake, LPS-treated mice” value is 1.16±0.50 % ID/g; the “kidney uptake, LPS-treated mice” value stood at 8.73±3.18 % ID/gram; the “liver uptake, LPS-treated mice” value is 7.08±1.27 % ID/gram. In addition, the “brain uptake, LPS-treated mice” value in data set [8] (LPS 5 mg/kg, perfused) worked out at 0.84±0.21 % ID/gram. In data set [9], the “time of peak brain uptake” value was ≤ 22.5 s and the “whole-brain uptake after washout, end of 60 min scan” value is reported as 1.89±0.35 % ID/g. Also, the peak whole-brain uptake in [9] (60 min dynamic scan) is given as 5.90±0.89 % ID/g.

For the compound `[11CH3]c1cnccc1CN1C[C@@H](c2cc(F)c(F)c(F)c2)CC1=O` [^11C-UCBJ], the “Brain 15 min/90 min ratio” value in data set [10] (healthy mouse brain) is reported as ~3. Also, the “time of maximum brain uptake” value in data set [10] (healthy mouse) was 15 min.
